Measurements from ChEMBL document CHEMBL1201862, “PubChem BioAssay data set” (2004).
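Growth conditions: 96-well plates. Treatment: test compound, 48 hours, 5 concentrations. Analysis: linear interpolation between bracketing concentrations; unreached endpoints set to highest concentration. The concentration for 50% growth inhibition is given as GI50.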 Active and inactive are the calls of the source. No stated cut-off is given here; in the data, active = GI50 up to about 1.1 µM and inactive = higher. Numbered stars: 1 amine (or outer) side, 2 acyl side, 3 side chain; on linkers, the order of the positions; unused ones are H or OH. Bridge positions count the residues as written; N and C are the ends. Square brackets hold non-standard residues; d marks the D form. Peptide text beside a SMILES is read from it. * marks the point of attachment. ξ: configuration not given here. X33 = O=C(C(CCCCNO[*:3])N[*:1])[*:2]; Fmoc = O=C(OCC1c2ccccc2-c2ccccc21)*; ξW = NC(Cc1c[nH]c2ccccc12)C(=O)O; ξP = O=C(O)C1CCCN1

Key:
Assay in all cases: DTP human tumour cell line panel, 48 h
A549 = tested on: A549
SF-539 = tested on: SF-539
NCI-H23 = tested on: NCI-H23
NCI-H226 = tested on: NCI-H226
MDA-N = tested on: MDA-N
NCI/ADR-RES = tested on: NCI/ADR-RES
OVCAR-8 = tested on: OVCAR-8
HOP-62 = tested on: HOP-62
K562 = tested on: K562
SF-268 = tested on: SF-268
COLO 205 = tested on: COLO 205
A498 = tested on: A498
HCC 2998 = tested on: HCC 2998
SK-MEL-5 = tested on: SK-MEL-5
HCT-116 = tested on: HCT-116
SNB-75 = tested on: SNB-75
OVCAR-4 = tested on: OVCAR-4
UACC-62 = tested on: UACC-62
SW-620 = tested on: SW-620
T47D = tested on: T47D

Measured: GI50

Oc1c2c(nc3cc4c(cc13)OCO4)-c1ccccc1CCC2
inactive: A549 > 50 µM | SF-539 > 50 µM | NCI-H23 > 50 µM | NCI-H226 > 50 µM | MDA-N 18.9 µM | NCI/ADR-RES > 50 µM | OVCAR-8 48.5 µM | HOP-62 > 50 µM | K562 > 50 µM | SF-268 > 50 µM | COLO 205 > 50 µM | A498 > 50 µM | HCC 2998 > 50 µM | SK-MEL-5 45.6 µM | HCT-116 28.1 µM | SNB-75 > 50 µM | OVCAR-4 30.2 µM | UACC-62 > 50 µM | SW-620 > 50 µM

CCN(CC)c1ccc2cc(-c3nnc(-c4ccccc4)[nH]3)c(=O)oc2c1
inactive: A549 68.5 µM | SF-539 13.8 µM | NCI-H23 6.49 µM | MDA-N > 100 µM | NCI/ADR-RES 21.7 µM | OVCAR-8 3.78 µM | HOP-62 7.28 µM | K562 > 100 µM | SF-268 62.8 µM | COLO 205 > 100 µM | A498 22.9 µM | HCC 2998 > 100 µM | SK-MEL-5 > 100 µM | HCT-116 35.8 µM | OVCAR-4 7.36 µM | UACC-62 > 100 µM | SW-620 33.7 µM

CC(=O)OC1[C@H](n2ccnc2)C[C@H]2[C@@H]3CC=C4CC(N5CCCC5)CC[C@]4(C)[C@H]3CC[C@]12C (some centres not stated)
inactive: A549 41.4 µM | SF-539 14.1 µM | NCI-H23 60.3 µM | NCI-H226 40.1 µM | MDA-N 28.1 µM | NCI/ADR-RES > 100 µM | OVCAR-8 62.5 µM | K562 17.1 µM | SF-268 34.8 µM | COLO 205 23.7 µM | A498 32.7 µM | SK-MEL-5 33 µM | HCT-116 21 µM | SNB-75 > 100 µM | OVCAR-4 87.3 µM | UACC-62 27.5 µM | SW-620 54.1 µM

N#CC(c1ccccc1)c1cccc2ccccc12 (configuration not stated)
inactive: A549 20.1 µM | SF-539 30.6 µM | NCI-H23 42.1 µM | NCI-H226 > 100 µM | NCI/ADR-RES 39.8 µM | OVCAR-8 27.4 µM | HOP-62 90.2 µM | K562 26 µM | SF-268 19.9 µM | T47D 38.5 µM | COLO 205 40.8 µM | A498 30.4 µM | HCC 2998 36.7 µM | SK-MEL-5 18.2 µM | HCT-116 65 µM | SNB-75 > 100 µM | OVCAR-4 47.5 µM | UACC-62 52.2 µM | SW-620 38.4 µM

O=C(/N=C(\Nc1ccccc1)SCCS/C(=N/C(=O)c1cccs1)Nc1ccccc1)c1cccs1
inactive: A549 41.8 µM | SF-539 > 100 µM | NCI-H23 46.2 µM | NCI-H226 55.8 µM | OVCAR-8 73.3 µM | HOP-62 80.4 µM | K562 35.2 µM | SF-268 > 10 µM | COLO 205 77.1 µM | A498 56.9 µM | HCC 2998 35.1 µM | SK-MEL-5 21.5 µM | HCT-116 49 µM | SNB-75 35.6 µM | OVCAR-4 30.3 µM | UACC-62 47 µM | SW-620 95.7 µM

O=C1Nc2cccc3cc(NCC(O)CCl)cc1c23 (configuration not stated)
inactive: A549 56.9 µM | NCI-H23 > 100 µM | NCI-H226 > 100 µM | NCI/ADR-RES 64.7 µM | OVCAR-8 48.9 µM | HOP-62 49.9 µM | K562 91.2 µM | SF-268 38.4 µM | T47D 88.5 µM | COLO 205 77.4 µM | HCC 2998 91 µM | SK-MEL-5 49.8 µM | HCT-116 33.7 µM | SNB-75 25.4 µM | OVCAR-4 > 100 µM | UACC-62 49.9 µM | SW-620 40.5 µM

COc1cc(/C=C2\CCC/C(=C\c3ccc(OC(=O)CCCCC4CCSS4)c(OC)c3)C2=O)ccc1OC(=O)CCCCC1CCSS1 (configuration not stated)
inactive: A549 > 100 µM | SF-539 > 100 µM | NCI-H23 > 100 µM | NCI-H226 > 100 µM | MDA-N > 100 µM | NCI/ADR-RES > 100 µM | OVCAR-8 > 100 µM | HOP-62 > 100 µM | K562 > 100 µM | SF-268 > 100 µM | COLO 205 > 100 µM | A498 > 100 µM | SK-MEL-5 > 100 µM | HCT-116 > 100 µM | SNB-75 > 100 µM | OVCAR-4 > 100 µM | UACC-62 > 100 µM | SW-620 > 100 µM

O=C(Nn1c(-c2ccccc2)nc2ccccc2c1=O)c1ccccn1
inactive: A549 > 100 µM | SF-539 43.7 µM | NCI-H23 > 100 µM | NCI/ADR-RES > 100 µM | OVCAR-8 64.4 µM | HOP-62 > 100 µM | K562 78.5 µM | SF-268 > 100 µM | T47D > 100 µM | COLO 205 > 100 µM | A498 15.4 µM | HCC 2998 > 100 µM | SK-MEL-5 37.7 µM | HCT-116 57.4 µM | SNB-75 42.1 µM | OVCAR-4 > 100 µM | UACC-62 42.3 µM | SW-620 > 100 µM

O=C(O)CN1C=C(C(=O)c2cc3ccccc3n2S(=O)(=O)c2ccccc2)CCC1
inactive: A549 68.1 µM | SF-539 39.7 µM | NCI-H23 50.6 µM | NCI-H226 46.8 µM | NCI/ADR-RES 66.1 µM | OVCAR-8 64.6 µM | HOP-62 > 100 µM | K562 24.2 µM | SF-268 > 100 µM | T47D 28.6 µM | COLO 205 20.9 µM | A498 69.3 µM | HCC 2998 69.7 µM | SK-MEL-5 24.9 µM | HCT-116 57.3 µM | SNB-75 27.5 µM | OVCAR-4 83.9 µM | UACC-62 83 µM | SW-620 69.2 µM

CCC[C@H]1C(=O)N=C(N)N1C(=O)OCc1ccccc1
inactive: SF-539 > 100 µM | NCI-H23 > 100 µM | NCI-H226 > 100 µM | MDA-N > 100 µM | NCI/ADR-RES > 100 µM | OVCAR-8 > 100 µM | HOP-62 > 100 µM | K562 > 100 µM | SF-268 > 100 µM | COLO 205 > 100 µM | A498 > 100 µM | HCC 2998 > 100 µM | SK-MEL-5 > 100 µM | HCT-116 > 100 µM | SNB-75 > 100 µM | OVCAR-4 > 100 µM | UACC-62 > 100 µM | SW-620 > 100 µM

NC(=O)CNC(=O)C1CCCN1C(=O)C1CCCCNOC(=O)CC[C@@H](NC(=O)OCC2c3ccccc3-c3ccccc32)C(=O)NC(Cc2c[nH]c3ccccc23)C(=O)N1 (some centres not stated) (Fmoc-[dE][ξW][X33][ξP]G-NH2; ester 1-3)
inactive: A549 > 100 µM | SF-539 > 100 µM | NCI-H23 > 100 µM | NCI-H226 > 100 µM | NCI/ADR-RES > 100 µM | OVCAR-8 > 100 µM | HOP-62 > 100 µM | K562 > 100 µM | SF-268 > 100 µM | T47D > 100 µM | COLO 205 > 100 µM | HCC 2998 > 100 µM | SK-MEL-5 > 100 µM | HCT-116 > 100 µM | SNB-75 > 100 µM | OVCAR-4 > 100 µM | UACC-62 > 100 µM | SW-620 > 100 µM
